{"source": "paper PMC7809101", "about": "“Fetal bovine serum albumin inhibits antimicrobial peptide activity and binds drug only in complex with α1-antitrypsin” (Scientific Reports, 2021)", "key": {"human serum albumin": {"tested_on": "human serum albumin", "conditions": "cited from earlier work"}, "human serum components": {"tested_on": "human serum components", "conditions": "cited from earlier work", "description": "(§1) Albumin is the most abundant protein in human serum (HSA, 45 mg/ml), followed in descending order by α1-antitrypsin (A1AT, 3.5 mg/ml), transferrin (2.5 mg/ml), α2-macroglobulin (2.5 mg/ml), haptoglobulin (1.8 mg/ml), low-density lipoprotein (LDL, 1.2 mg/ml), α1-acid glycoprotein (AGP, 0.8 mg/ml) and high-density lipoprotein (HDL, 0.6 mg/ml)[11]. These proteins are involved in the transportation of fatty acids, cholesterols, toxins and drugs in the blood stream."}, "[1]": {"biological_target": "T1, protein D (albumin and α1-antitrypsin complex) (Bos taurus, UniProt P02769+P34955)", "T1 construct": "The active components were further purified by fast performance liquid chromatography (FPLC) Mono Q and S12 column chromatography from the 70% saturated fraction; from tissue; host or cells: fetal bovine serum (70% ammonium sulfate fraction, FPLC Mono Q and Superose 12)", "T1 sequence (P02769 25-607, one chain of several)": "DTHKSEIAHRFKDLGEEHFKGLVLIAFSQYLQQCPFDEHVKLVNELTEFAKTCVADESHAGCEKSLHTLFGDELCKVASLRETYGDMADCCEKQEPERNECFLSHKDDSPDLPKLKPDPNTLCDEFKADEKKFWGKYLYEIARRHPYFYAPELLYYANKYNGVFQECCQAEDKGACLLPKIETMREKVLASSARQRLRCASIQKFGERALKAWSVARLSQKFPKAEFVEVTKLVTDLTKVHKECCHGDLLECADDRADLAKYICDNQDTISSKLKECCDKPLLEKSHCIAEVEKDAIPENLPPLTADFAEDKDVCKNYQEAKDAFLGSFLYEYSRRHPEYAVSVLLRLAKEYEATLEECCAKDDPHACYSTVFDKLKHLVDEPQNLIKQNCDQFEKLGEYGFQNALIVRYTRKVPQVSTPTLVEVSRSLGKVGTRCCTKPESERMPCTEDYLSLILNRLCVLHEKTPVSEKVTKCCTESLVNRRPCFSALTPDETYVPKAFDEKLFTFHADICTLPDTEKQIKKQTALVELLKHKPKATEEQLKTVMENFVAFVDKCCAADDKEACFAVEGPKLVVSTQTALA", "experiment": "Band shift of AMPs by protein D", "assay_type": "binding, bovine", "conditions": "AMP 4 μg; protein 10 μg (Suppl. Fig. 3a); PC buffer, room temperature, 30 min; 8% horizontal native PAGE"}, "[2]": {"tested_on": "Escherichia coli K-12 (MG1655)", "experiment": "Antimicrobial (bactericidal) activity against E. coli, effect of serum or serum proteins", "assay_type": "cell-based", "conditions": "5% (v/v) FBS in PBS, 37 °C; remaining viable cells (cfu)", "description": "The Gram-negative bacteria Escherichia coli K-12 (MG1655) was cultured and plated in/on Luria–Bertani broth/agar plate (Merck Millipore, Darmstadt, Germany). The Gram-positive Staphylococcus aureus (ATCC 6538P) was cultured and plated in tryptic soy broth/agar (BD, MD, USA). The fungus Candida albicans (ATCC 14,053) was cultured and plated in YM broth/agar (BD, MD, USA). The bacteria were grown overnight, washed, and diluted 1:2000 in phosphate buffered saline (PBS), pH 7.5 or DMEM (Life Biotech, California, USA), pH 7.4. Bacteria (ca. 1 × 10^6 colony-forming units, cfu) were mixed with antimicrobial peptides (AMP) in 100 μl PBS and incubated at 37 °C (for bacteria) and at 30 °C (for fungus). Serial dilutions of each AMP-treated bacteria in PBS/DMEM supplemented with FBS were prepared and plated for the determination of remaining viable cells (expressed as cfu). At least three independent experiments were performed for each assay to determine the average value with standard deviation. MBC was defined as the lowest AMP concentration that kills 99.9% of the original inoculum."}, "[3]": {"biological_target": "T2, protein B (α1-antitrypsin) (Bos taurus, UniProt P34955)", "T2 sequence (P34955 25-416)": "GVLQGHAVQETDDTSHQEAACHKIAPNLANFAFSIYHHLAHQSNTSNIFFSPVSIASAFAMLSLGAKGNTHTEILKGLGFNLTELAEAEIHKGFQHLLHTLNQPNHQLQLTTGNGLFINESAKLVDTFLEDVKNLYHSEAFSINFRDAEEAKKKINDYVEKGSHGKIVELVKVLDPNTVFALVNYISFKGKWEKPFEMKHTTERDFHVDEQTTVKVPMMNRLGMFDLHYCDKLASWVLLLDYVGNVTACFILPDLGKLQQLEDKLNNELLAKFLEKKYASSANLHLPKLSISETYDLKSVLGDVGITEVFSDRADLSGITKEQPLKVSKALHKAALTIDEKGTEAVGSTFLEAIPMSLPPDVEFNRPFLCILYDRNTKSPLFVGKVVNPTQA", "experiment": "Band shift of AMPs by protein B", "assay_type": "binding, bovine", "set-up": "The homogeneities of collected protein A (albumin), protein B (α1-antitrypsin), protein C (serotransferrin) and protein D complex; from tissue; host or cells: fetal bovine serum (70% ammonium sulfate fraction, FPLC Mono Q)", "conditions": "AMP 4 μg; protein 10 μg (Suppl. Fig. 3a); PC buffer, room temperature, 30 min; 8% horizontal native PAGE", "description": "(§2) Various AMPs (4 μg each) were incubated with fetal bovine serum (FBS) components at room temperature in 10 μl PC buffer for 30 min and subjected to horizontal native 8% PAGE, pH8.0 or pH8.8, and Coomassie Blue staining."}, "fetal bovine serum (FBS)": {"tested_on": "fetal bovine serum (FBS)", "experiment": "Band shift of AMPs by fetal bovine serum", "assay_type": "binding", "conditions": "10–40% FBS; AMP 4 μg; PC buffer, room temperature, 30 min; horizontal native 8% PAGE", "description": "as §2"}, "bovine serum albumin": {"tested_on": "bovine serum albumin", "set-up": "method as in PMID 24456893, PMID 18779351, PMID 17569519", "conditions": "ref [12],[16],[17]; cited from earlier work", "description": "as §1"}, "protein A (albumin)": {"biological_target": "protein A (albumin) (Bos taurus, UniProt P02769)", "sequence (P02769 25-607)": "as the sequence (P02769 25-607, one chain of several) above", "experiment": "Fluorescence emission spectrum (blue shift), protein A", "assay_type": "binding, bovine", "set-up": "The homogeneities of collected protein A (albumin), protein B (α1-antitrypsin), protein C (serotransferrin) and protein D complex; from tissue; host or cells: fetal bovine serum (70% ammonium sulfate fraction, FPLC Mono Q)", "conditions": "protein A 0.75 μM, PC buffer, 25 °C, 30 min; excitation 285 nm, emission 300–450 nm; reagent up to: sarkosyl 320, TP4-A12I,A15I 120, ibuprofen 24, phenytoin 20 μM", "description": "(§3) The mixtures were excited by 285 nm and its emission spectra were recorded between 300 and 450 nm using a temperature-controlled fluorimeter (FP8500, Jasco, Japan)[13]."}, "[4]": {"biological_target": "T1, protein D (albumin and α1-antitrypsin complex)", "experiment": "Fluorescence emission spectrum (blue shift), protein D", "assay_type": "binding, bovine", "conditions": "protein D 0.75 μM, PC buffer, 25 °C, 30 min; excitation 285 nm, emission 300–450 nm; reagent up to: sarkosyl 320, TP4-A12I,A15I 120, ibuprofen 24, phenytoin 20 μM", "description": "as §3"}, "trypsin": {"tested_on": "trypsin", "experiment": "Antitrypsin activity analysis", "assay_type": "biochemical", "conditions": "trypsin 2 ng (0.2 μg/ml) pre-incubated 30 min, PC buffer, 37 °C, 15% reduced SDS-PAGE; for inhibition of proteolytic activity of trypsin toward SAAP159: substrate SAAP159 4 μg (0.4 mg/ml); for inhibition of proteolytic activity of trypsin toward TP4: substrate TP4 2 μg (0.2 mg/ml)", "description": "The inhibitions of trypsin’s proteolytic activity by serum components on peptides TP4 and SAAP159 were determined as follows. Freshly diluted trypsin (2 ng; 0.2 μg/ml) was pre-incubated with various concentrations of serum components in PC buffer for 30 min before the mixture was added to TP4 (2 μg; 0.2 mg/ml) or SAAP159 (4 μg/; 0.4 mg/ml) peptides in 10 μl PC buffer at 37 °C for 30 min. The digested peptide fragments were analyzed by 15% reduced SDS-PAGE and Coomassie Blue staining."}, "[5]": {"biological_target": "biotinylated TP4-A12I,A15I (tilapia)", "experiment": "BLI; Octet RED384; biotinylated TP4-A12I,A15I (10 μM) immobilised on a Streptavidin biosensor; serial dilutions of serum components in PC buffer as analyte; global fit (1:1)"}}, "data": [{"molecule": "daptomycin", "values": [{"measurement": "bound by human serum albumin", "setting": "human serum albumin", "result": "90-94%"}, {"measurement": "bound to human serum components", "setting": "human serum components", "result": "90-94%"}, {"measurement": "order of binding to human serum components", "setting": "human serum components", "result": "albumin > > α1-antitrypsin > low-density lipoprotein > high-density lipoprotein > transferrin"}]}, {"molecule": "Iseganan [reference compound]", "values": [{"measurement": "binding to protein D (band shift)", "setting": "[1]", "result": "also bound by protein D"}, {"measurement": "effect of FBS on antimicrobial activity against E. coli", "setting": "[2]", "result": "serum-mediated repression"}, {"measurement": "binding to protein B (band shift)", "setting": "[3]", "result": "not by protein A and protein B"}, {"measurement": "mobility of AMP in band shift assay with FBS", "setting": "fetal bovine serum (FBS)", "result": "retarded"}]}, {"molecule": "COc1c(N2C[C@@H]3CCCN[C@@H]3C2)c(F)cc2c(=O)c(C(=O)O)cn(C3CC3)c12", "note": "[moxifloxacin]", "values": [{"measurement": "bound and inhibited by bovine serum albumin", "setting": "bovine serum albumin", "result": "bound and inhibited"}]}, {"molecule": "CCCCCCCCCCCC(=O)N(C)CC(=O)[O-].[Na+]", "note": "[sarkosyl]", "values": [{"measurement": "blue shift of fluorescence emission spectrum, protein A", "setting": "protein A (albumin)", "result": "caused blue shifts"}, {"measurement": "blue shift of fluorescence emission spectrum, protein D", "setting": "[4]", "result": "caused blue shifts"}]}, {"molecule": "protein A: bovine serum albumin, free form, purified from fetal bovine serum", "values": [{"measurement": "inhibition of proteolytic activity of trypsin toward SAAP159", "setting": "trypsin", "result": "only minimally affected"}, {"measurement": "inhibition of proteolytic activity of trypsin toward TP4", "setting": "trypsin", "result": "only minimally affected"}]}, {"molecule": "CO/N=C(\\C(=O)N[C@@H]1C(=O)N2C(C(=O)O)=C(CSc3nc(=O)c(=O)[nH]n3C)CS[C@H]12)c1csc(N)n1", "note": "[ceftriaxone]", "values": [{"measurement": "bound and inhibited by human serum albumin", "setting": "human serum albumin; ref [12],[16],[17]", "result": "bound and inhibited"}, {"measurement": "bound and inhibited by bovine serum albumin", "setting": "bovine serum albumin", "result": "bound and inhibited"}]}, {"molecule": "protein D: albumin and α1-antitrypsin complex linked by disulfide bond, from fetal bovine serum", "values": [{"measurement": "inhibition of proteolytic activity of trypsin toward SAAP159", "setting": "trypsin", "result": "repressed"}, {"measurement": "inhibition of proteolytic activity of trypsin toward TP4", "setting": "trypsin", "result": "repressed"}]}, {"molecule": "protein D complex (albumin and α1-antitrypsin) (from UniProt P02769 25-607; P34955 25-416)", "values": [{"measurement": "Kd", "setting": "[5]", "result": 21.7, "unit": "nM"}]}, {"molecule": "CC(=O)CC(c1ccccc1)c1c(O)c2ccccc2oc1=O", "note": "(stereo not drawn) [warfarin]", "values": [{"measurement": "bound to site I of human albumin", "setting": "human serum albumin; site I, ref [8]–[10]", "result": "More than 90%"}]}, {"molecule": "Polymyxin B", "values": [{"measurement": "effect of FBS on antimicrobial activity against E. coli", "setting": "[2]", "result": "not"}]}, {"molecule": "protein B: bovine α1-antitrypsin, free form, purified from fetal bovine serum (protein) GVLQGHAVQETDDTSHQEAACHKIAPNLANFAFSIYHHLAHQSNTSNIFFSPVSIASAFAMLSLGAKGNTHTEILKGLGFNLTELAEAEIHKGFQHLLHTLNQPNHQLQLTTGNGLFINESAKLVDTFLEDVKNLYHSEAFSINFRDAEEAKKKINDYVEKGSHGKIVELVKVLDPNTVFALVNYISFKGKWEKPFEMKHTTERDFHVDEQTTVKVPMMNRLGMFDLHYCDKLASWVLLLDYVGNVTACFILPDLGKLQQLEDKLNNELLAKFLEKKYASSANLHLPKLSISETYDLKSVLGDVGITEVFSDRADLSGITKEQPLKVSKALHKAALTIDEKGTEAVGSTFLEAIPMSLPPDVEFNRPFLCILYDRNTKSPLFVGKVVNPTQA", "values": [{"measurement": "inhibition of proteolytic activity of trypsin toward SAAP159", "setting": "trypsin", "result": "repressed"}, {"measurement": "inhibition of proteolytic activity of trypsin toward TP4", "setting": "trypsin", "result": "repressed"}]}]}
